Laboratory results: patent US11780893B2, “Kv1.3 blockers” (Zealand Pharma A/S, priority 2019, dated 2023)
Bridge positions count the residues as written; N and C are the ends. Square brackets hold non-standard residues; d marks the D form. Peptide text beside a SMILES is read from it. Phe(4-NH2) = Nc1ccc(C[C@H](N)C(=O)O)cc1; Nle = CCCC[C@H](N)C(=O)O

Assays:
[1] = target: T1, human Kv1.3 voltage-gated K+ channel (Homo sapiens, UniProt P22001); assay: cell-based; conditions: inhibition of thallium flux, CHO-DUKX cells with human Kv1.3; read-out: IC50
T1 construct: host or cells: CHO-DUKX

[2] = target: T2, Kv1.6 (Homo sapiens, UniProt P17658); assay: cell-based; conditions: for IC50: CHO cells, whole-cell patch clamp, read-out: Potency IC50 (nM) Kv1.6; for Selectivity Kv1.6/Kv1.3: ratio IC50[Kv1.6]/IC50[Kv1.3]
T2 construct: expressed in transfected cells; host or cells: Chinese Hamster Ovary (CHO)

[3] = target: T3, Kv1.1 (Homo sapiens, UniProt Q09470); assay: cell-based; conditions: for IC50: CHO cells, whole-cell patch clamp, read-out: Potency IC50 (nM) Kv1.1; for Selectivity Kv1.1/Kv1.3: ratio IC50[Kv1.1]/IC50[Kv1.3]
T3 construct: expressed in transfected cells; host or cells: Chinese Hamster Ovary (CHO)

[4] = target: Rat whole blood (Rattus norvegicus, UniProt P15384)
[5] = target: T4, Kv1.2 (Homo sapiens, UniProt P16389); assay: cell-based; conditions: for IC50: CHO cells, whole-cell patch clamp, read-out: Potency IC50 (nM) Kv1.2
T4 construct: expressed in transfected cells; host or cells: Chinese Hamster Ovary (CHO)

[6] = target: T5, Kv1.3 (Homo sapiens, UniProt P22001); assay: cell-based; conditions: CHO cells, whole-cell patch clamp; read-out: Potency IC50 (nM) Kv1.3
T5 construct: expressed in transfected cells; host or cells: Chinese Hamster Ovary (CHO)
T5 sequence (P22001 whole entry): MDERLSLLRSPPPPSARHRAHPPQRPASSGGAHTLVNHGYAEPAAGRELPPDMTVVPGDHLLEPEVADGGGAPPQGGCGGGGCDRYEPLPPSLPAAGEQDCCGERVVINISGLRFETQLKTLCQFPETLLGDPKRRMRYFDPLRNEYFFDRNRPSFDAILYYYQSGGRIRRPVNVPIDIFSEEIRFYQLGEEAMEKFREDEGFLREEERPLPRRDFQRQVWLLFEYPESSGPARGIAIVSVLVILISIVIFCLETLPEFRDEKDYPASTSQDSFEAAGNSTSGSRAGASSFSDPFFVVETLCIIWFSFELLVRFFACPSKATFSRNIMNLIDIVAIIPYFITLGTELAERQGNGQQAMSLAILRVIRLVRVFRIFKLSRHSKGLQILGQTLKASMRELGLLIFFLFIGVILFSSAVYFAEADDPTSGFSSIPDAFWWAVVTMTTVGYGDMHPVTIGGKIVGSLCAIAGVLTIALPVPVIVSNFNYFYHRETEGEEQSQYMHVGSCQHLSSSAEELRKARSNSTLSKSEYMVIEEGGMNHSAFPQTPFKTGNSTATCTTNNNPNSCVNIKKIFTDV

T2 sequence (P17658 whole entry): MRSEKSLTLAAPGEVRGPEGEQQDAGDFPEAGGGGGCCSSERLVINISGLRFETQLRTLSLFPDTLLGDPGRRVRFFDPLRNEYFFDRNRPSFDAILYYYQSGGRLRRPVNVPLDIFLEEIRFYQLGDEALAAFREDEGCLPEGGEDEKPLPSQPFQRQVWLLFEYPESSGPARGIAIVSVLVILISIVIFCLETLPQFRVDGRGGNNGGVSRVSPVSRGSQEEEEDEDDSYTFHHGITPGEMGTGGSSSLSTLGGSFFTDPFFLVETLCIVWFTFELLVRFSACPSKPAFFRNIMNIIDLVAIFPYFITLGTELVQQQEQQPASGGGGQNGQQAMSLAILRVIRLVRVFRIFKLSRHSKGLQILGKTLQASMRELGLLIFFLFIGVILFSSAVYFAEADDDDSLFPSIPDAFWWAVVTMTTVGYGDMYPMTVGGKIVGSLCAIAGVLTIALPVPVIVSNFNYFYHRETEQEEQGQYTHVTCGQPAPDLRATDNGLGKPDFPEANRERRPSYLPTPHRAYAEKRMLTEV
Chain of Rat whole blood (P15384 whole entry): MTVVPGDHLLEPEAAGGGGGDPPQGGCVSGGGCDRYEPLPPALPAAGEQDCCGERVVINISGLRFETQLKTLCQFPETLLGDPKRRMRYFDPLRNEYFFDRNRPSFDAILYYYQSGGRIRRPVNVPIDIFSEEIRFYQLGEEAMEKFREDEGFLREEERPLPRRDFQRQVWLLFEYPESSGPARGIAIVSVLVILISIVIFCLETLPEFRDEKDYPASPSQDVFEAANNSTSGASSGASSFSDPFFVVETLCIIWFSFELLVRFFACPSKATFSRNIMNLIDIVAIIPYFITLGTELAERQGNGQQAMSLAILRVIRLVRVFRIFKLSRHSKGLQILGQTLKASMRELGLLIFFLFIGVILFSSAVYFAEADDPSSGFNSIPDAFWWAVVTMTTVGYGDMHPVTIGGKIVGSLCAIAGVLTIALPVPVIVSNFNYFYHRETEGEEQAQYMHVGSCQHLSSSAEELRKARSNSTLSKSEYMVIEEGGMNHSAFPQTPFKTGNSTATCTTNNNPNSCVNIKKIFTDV
T3 sequence (Q09470 whole entry): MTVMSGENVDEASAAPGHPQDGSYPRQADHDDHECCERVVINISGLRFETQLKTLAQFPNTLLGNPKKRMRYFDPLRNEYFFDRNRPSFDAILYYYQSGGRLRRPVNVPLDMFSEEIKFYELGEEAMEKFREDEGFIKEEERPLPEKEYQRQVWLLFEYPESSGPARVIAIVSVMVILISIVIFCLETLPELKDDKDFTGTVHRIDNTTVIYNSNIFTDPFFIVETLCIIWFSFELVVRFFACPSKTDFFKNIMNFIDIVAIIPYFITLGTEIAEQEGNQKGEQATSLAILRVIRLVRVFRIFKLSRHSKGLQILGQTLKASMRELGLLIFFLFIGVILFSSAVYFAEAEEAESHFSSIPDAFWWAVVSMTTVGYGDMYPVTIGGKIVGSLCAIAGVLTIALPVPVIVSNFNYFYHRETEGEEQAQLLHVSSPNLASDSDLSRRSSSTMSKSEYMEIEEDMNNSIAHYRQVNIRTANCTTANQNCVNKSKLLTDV
T4 sequence (P16389 whole entry): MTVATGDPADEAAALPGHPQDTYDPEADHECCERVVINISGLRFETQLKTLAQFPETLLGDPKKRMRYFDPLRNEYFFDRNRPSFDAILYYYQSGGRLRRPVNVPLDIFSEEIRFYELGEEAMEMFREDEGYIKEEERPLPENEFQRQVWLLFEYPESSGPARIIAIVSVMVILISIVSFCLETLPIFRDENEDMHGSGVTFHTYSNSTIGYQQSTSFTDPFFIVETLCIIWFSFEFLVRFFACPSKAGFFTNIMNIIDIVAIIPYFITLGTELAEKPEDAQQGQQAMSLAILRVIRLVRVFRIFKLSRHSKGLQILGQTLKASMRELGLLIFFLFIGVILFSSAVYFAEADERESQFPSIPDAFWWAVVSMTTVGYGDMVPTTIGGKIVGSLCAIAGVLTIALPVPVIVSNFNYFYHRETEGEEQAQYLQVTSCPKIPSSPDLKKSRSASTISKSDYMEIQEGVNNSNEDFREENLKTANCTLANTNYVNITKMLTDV
T1 sequence (P22001 whole entry): as the sequence (P22001 whole entry) above

CCCC[C@H](NC(=O)[C@H](CC(=O)O)NC(=O)[C@H](CCCC)NC(=O)[C@@H](N)CO)C(=O)N[C@@H](CCCNC(=N)N)C(=O)N[C@H]1CSSC[C@@H]2NC(=O)[C@H](CCCCN)NC(=O)CNC(=O)[C@H](Cc3ccccc3)NC(=O)[C@H]([C@@H](C)CC)NC(=O)[C@H](CO)NC(=O)CNC(=O)[C@H]([C@@H](C)CC)NC(=O)[C@H](C)NC(=O)[C@H](CCCCN)NC(=O)[C@H](CC(C)C)NC(=O)[C@@H]3CSSC[C@@H](C(=O)N[C@@H](Cc4ccc(N)cc4)C(=O)N4CCC[C@H]4C(=O)N[C@@H](CCCNC(=N)N)C(N)=O)NC(=O)[C@H](CCCCN)NC(=O)[C@H](CSSC[C@H](NC(=O)[C@H](CCC(=O)O)NC(=O)[C@H](C(C)C)NC(=O)[C@H](CO)NC(=O)[C@H](C)NC(=O)[C@H](CO)NC1=O)C(=O)N[C@@H](CCCCN)C(=O)N[C@@H](CCC(N)=O)C(=O)N[C@@H](CCCCN)C(=O)N3)NC(=O)[C@H](CCCCN)NC(=O)[C@H](CCCCN)NC(=O)[C@H](CC(N)=O)NC(=O)[C@H](CCSC)NC2=O [Compound 70] (H-S[Nle]D[Nle]RCSASVECKQKCLKAIGSIFGKCMNKKCKC[Phe(4-NH2)]PR-NH2; disulfide 6-27, 12-32, 16-34)
IC50 [1]: 0.13 nM
IC50 [2]: > 3000 nM
Selectivity Kv1.6/Kv1.3 [2]: >12200
IC50 [3]: > 3000 nM
Selectivity Kv1.1/Kv1.3 [3]: >12200
IC50 [4]: ≤ 1 nM
IC50 [5]: 423 nM
IC50 [6]: 0.25 nM

CCCC[C@H](NC(=O)[C@H](CC(=O)O)NC(=O)[C@H](CCCC)NC(=O)[C@@H](N)CO)C(=O)N[C@@H](CCCNC(=N)N)C(=O)N[C@H]1CSSC[C@@H]2NC(=O)[C@H](CCCCN)NC(=O)CNC(=O)[C@H](Cc3ccccc3)NC(=O)[C@H]([C@@H](C)CC)NC(=O)[C@H](CO)NC(=O)CNC(=O)[C@H]([C@@H](C)CC)NC(=O)[C@H](C)NC(=O)[C@H](CCCCN)NC(=O)[C@H](CC(C)C)NC(=O)[C@@H]3CSSC[C@@H](C(=O)N[C@@H](Cc4ccc(O)cc4)C(=O)N4CCC[C@H]4C(=O)N[C@@H](CCCNC(=N)N)C(N)=O)NC(=O)[C@H](CCCCN)NC(=O)[C@H](CSSC[C@H](NC(=O)[C@H](CCC(=O)O)NC(=O)[C@H](C(C)C)NC(=O)[C@H](CO)NC(=O)[C@H](C)NC(=O)[C@H](CO)NC1=O)C(=O)NCC(=O)N[C@@H](CCC(N)=O)C(=O)N[C@@H](CCCCN)C(=O)N3)NC(=O)[C@H](CCCCN)NC(=O)[C@H](CCCCN)NC(=O)[C@H](CC(N)=O)NC(=O)[C@H](CCSC)NC2=O [Compound 71] (H-S[Nle]D[Nle]RCSASVECGQKCLKAIGSIFGKCMNKKCKCYPR-NH2; disulfide 6-27, 12-32, 16-34)
IC50 [1]: 0.1 nM
IC50 [2]: > 3000 nM
Selectivity Kv1.6/Kv1.3 [2]: >27700
IC50 [3]: > 3000 nM
Selectivity Kv1.1/Kv1.3 [3]: >27700
IC50 [4]: ≤ 1 nM
IC50 [5]: 373 nM
IC50 [6]: 0.11 nM

CCCC[C@H](NC(=O)[C@@H](N)CO)C(=O)N[C@@H](CC(=O)O)C(=O)N[C@@H](CCC(=O)O)C(=O)N[C@@H](CCCNC(=N)N)C(=O)N[C@H]1CSSC[C@@H]2NC(=O)[C@H](CCCCN)NC(=O)CNC(=O)[C@H](Cc3ccccc3)NC(=O)[C@H]([C@@H](C)CC)NC(=O)[C@H](CO)NC(=O)CNC(=O)[C@H]([C@@H](C)CC)NC(=O)[C@H](C)NC(=O)[C@H](CCCCN)NC(=O)[C@H](CC(C)C)NC(=O)[C@@H]3CSSC[C@@H](C(=O)N[C@@H](Cc4ccc(O)cc4)C(=O)N4CCC[C@H]4C(=O)N[C@@H](CCCNC(=N)N)C(N)=O)NC(=O)[C@H](CCCCN)NC(=O)[C@H](CSSC[C@H](NC(=O)[C@H](CCC(=O)O)NC(=O)[C@H](C(C)C)NC(=O)[C@H](CO)NC(=O)[C@H](C)NC(=O)[C@H](CO)NC1=O)C(=O)N[C@@H](CCCCN)C(=O)N[C@@H](CCC(N)=O)C(=O)N[C@@H](CCCCN)C(=O)N3)NC(=O)[C@H](CCCCN)NC(=O)[C@H](CCCCN)NC(=O)[C@H](CC(N)=O)NC(=O)[C@H](CCSC)NC2=O [Compound 76] (H-S[Nle]DERCSASVECKQKCLKAIGSIFGKCMNKKCKCYPR-NH2; disulfide 6-27, 12-32, 16-34)
IC50 [1]: 0.093 nM
IC50 [2]: > 3000 nM
Selectivity Kv1.6/Kv1.3 [2]: >10600
IC50 [3]: > 3000 nM
Selectivity Kv1.1/Kv1.3 [3]: >10600
IC50 [4]: ≤ 1 nM
IC50 [5]: 122 nM
IC50 [6]: 0.28 nM

CCCC[C@H](NC(=O)[C@@H]1CCCN1)C(=O)N[C@@H](CC(=O)O)C(=O)N[C@@H](CCCC)C(=O)N[C@@H](CCCNC(=N)N)C(=O)N[C@H]1CSSC[C@@H]2NC(=O)[C@H](CCCCN)NC(=O)CNC(=O)[C@H](Cc3ccccc3)NC(=O)[C@H]([C@@H](C)CC)NC(=O)[C@@H]3CSSC[C@@H](C(N)=O)NC(=O)[C@@H]4CCCN4C(=O)[C@H](Cc4ccc(O)cc4)NC(=O)[C@@H]4CSSC[C@H](NC(=O)[C@H](CCCCN)NC(=O)[C@H](CCC(N)=O)NC(=O)[C@H](CCCCN)NC(=O)[C@H](CSSC[C@H](NC(=O)[C@H](CCCCN)NC(=O)[C@H](CCCCN)NC(=O)[C@H](CC(N)=O)NC(=O)[C@H](CCCC)NC2=O)C(=O)N[C@@H](CCCCN)C(=O)N4)NC(=O)[C@H](CCC(=O)O)NC(=O)[C@H](C(C)C)NC(=O)[C@H](CO)NC(=O)[C@H](C)NC(=O)[C@H](CO)NC1=O)C(=O)N[C@@H](CC(C)C)C(=O)N[C@@H](CCCCN)C(=O)N[C@@H](C)C(=O)N[C@@H]([C@@H](C)CC)C(=O)NCC(=O)N3 [Compound 83] (H-P[Nle]D[Nle]RCSASVECKQKCLKAIGCIFGKC[Nle]NKKCKCYPC-NH2; disulfide 6-27, 12-32, 16-34, 22-37)
IC50 [1]: 0.12 nM
IC50 [2]: 1220 nM
Selectivity Kv1.6/Kv1.3 [2]: 1949
IC50 [3]: > 3000 nM
Selectivity Kv1.1/Kv1.3 [3]: >4800
IC50 [4]: ≤ 1 nM
IC50 [5]: 624 nM
Selectivity Kv1.2/Kv1.3 ([5]; ratio IC50[Kv1.2]/IC50[Kv1.3]): 995
IC50 [6]: 0.63 nM

CCCC[C@@H]1NC(=O)[C@@H]2CSSC[C@H](NC(=O)[C@H](CCCNC(=N)N)NC(=O)[C@H](CCCC)NC(=O)[C@H](CC(=O)O)NC(=O)[C@@H](N)CCCC)C(=O)N[C@@H](CO)C(=O)N[C@@H](C)C(=O)N[C@@H](CO)C(=O)N[C@@H](C(C)C)C(=O)N[C@@H](CCC(=O)O)C(=O)N[C@H]3CSSC[C@H](NC(=O)[C@H](CCCCN)NC(=O)[C@H](CCCCN)NC(=O)[C@H](CC(N)=O)NC1=O)C(=O)N[C@@H](CCCCN)C(=O)N[C@H](C(=O)N[C@@H](Cc1ccc(O)cc1)C(=O)N1CCC[C@H]1C(=O)N[C@@H](CCCNC(=N)N)C(=O)O)CSSC[C@H](NC(=O)[C@H](CCCCN)NC(=O)[C@H](CCC(N)=O)NC(=O)[C@H](CCCCN)NC3=O)C(=O)N[C@@H](CC(C)C)C(=O)N[C@@H](CCCCN)C(=O)N[C@@H](C)C(=O)N[C@@H]([C@@H](C)CC)C(=O)NCC(=O)N[C@@H](CO)C(=O)N[C@@H]([C@@H](C)CC)C(=O)N[C@@H](Cc1ccccc1)C(=O)NCC(=O)N[C@@H](CCCCN)C(=O)N2 [Compound 94] (H-[Nle]D[Nle]RCSASVECKQKCLKAIGSIFGKC[Nle]NKKCKCYPR-OH; disulfide 5-26, 11-31, 15-33)
IC50 [1]: 0.16 nM
IC50 [2]: > 3000 nM
Selectivity Kv1.6/Kv1.3 [2]: >17800
IC50 [3]: > 3000 nM
Selectivity Kv1.1/Kv1.3 [3]: >17800
IC50 [4]: ≤ 1 nM
IC50 [5]: 1860 nM
IC50 [6]: 0.17 nM

CCCC[C@H](NC(=O)[C@@H]1CCCN1)C(=O)N[C@@H](CCC(=O)O)C(=O)N[C@@H](CCCC)C(=O)N[C@@H](CCCNC(=N)N)C(=O)N[C@H]1CSSC[C@@H]2NC(=O)[C@H](CCCCN)NC(=O)CNC(=O)[C@H](Cc3ccccc3)NC(=O)[C@H]([C@@H](C)CC)NC(=O)[C@H](CO)NC(=O)CNC(=O)[C@H]([C@@H](C)CC)NC(=O)[C@H](C)NC(=O)[C@H](C)NC(=O)[C@H](CC(C)C)NC(=O)[C@@H]3CSSC[C@@H](C(=O)N[C@@H](Cc4ccc(O)cc4)C(=O)N4CCC[C@H]4C(=O)N[C@@H](CCCNC(=N)N)C(N)=O)NC(=O)[C@H](CCCCN)NC(=O)[C@H](CSSC[C@H](NC(=O)[C@H](CCC(=O)O)NC(=O)[C@H](C(C)C)NC(=O)[C@H](CO)NC(=O)[C@H](C)NC(=O)[C@H](CO)NC1=O)C(=O)N[C@@H](CCCCN)C(=O)N[C@@H](CCC(N)=O)C(=O)N[C@@H](CCCCN)C(=O)N3)NC(=O)[C@H](CCCCN)NC(=O)[C@H](CCCCN)NC(=O)[C@H](CC(N)=O)NC(=O)[C@H](CCCC)NC2=O [Compound 98] (H-P[Nle]E[Nle]RCSASVECKQKCLAAIGSIFGKC[Nle]NKKCKCYPR-NH2; disulfide 6-27, 12-32, 16-34)
IC50 [1]: 0.11 nM
IC50 [2]: > 3000 nM
Selectivity Kv1.6/Kv1.3 [2]: >16200
IC50 [3]: > 3000 nM
Selectivity Kv1.1/Kv1.3 [3]: >16200
IC50 [4]: ≤ 1 nM
IC50 [5]: 311 nM
IC50 [6]: 0.18 nM

CCCC[C@@H]1NC(=O)[C@@H]2CSSC[C@H](NC(C)=O)C(=O)N[C@@H](CO)C(=O)N[C@@H](C)C(=O)N[C@@H](CO)C(=O)N[C@@H](C(C)C)C(=O)N[C@@H](CCC(=O)O)C(=O)N[C@H]3CSSC[C@H](NC(=O)[C@H](CCCCN)NC(=O)[C@H](CCCCN)NC(=O)[C@H](CC(N)=O)NC1=O)C(=O)N[C@@H](CCCCN)C(=O)N[C@H](C(=O)N[C@@H](Cc1ccc(O)cc1)C(=O)N1CCC[C@H]1C(=O)N[C@@H](CCCNC(=N)N)C(N)=O)CSSC[C@H](NC(=O)[C@H](CCCCN)NC(=O)[C@H](CCC(N)=O)NC(=O)[C@H](CCCCN)NC3=O)C(=O)N[C@@H](CC(C)C)C(=O)N[C@@H](CCCCN)C(=O)N[C@@H](C)C(=O)N[C@@H]([C@@H](C)CC)C(=O)NCC(=O)N[C@@H](CO)C(=O)N[C@@H]([C@@H](C)CC)C(=O)N[C@@H](Cc1ccccc1)C(=O)NCC(=O)N[C@@H](CCCCN)C(=O)N2 [Compound 105] (Ac-CSASVECKQKCLKAIGSIFGKC[Nle]NKKCKCYPR-NH2; disulfide 1-22, 7-27, 11-29)
IC50 [1]: 0.16 nM
IC50 [2]: > 3000 nM
Selectivity Kv1.6/Kv1.3 [2]: >12400
IC50 [3]: > 3000 nM
Selectivity Kv1.1/Kv1.3 [3]: >12400
IC50 [4]: ≤ 1 nM
IC50 [5]: 384 nM
IC50 [6]: 0.24 nM
